Source: ChEMBL document CHEMBL5236582, “Trehalose diesters containing a polar functional group-modified lipid moiety: Synthesis and evaluation of Mincle-mediated signaling activity” (Bioorg Med Chem, 2022)
The source made the active and inactive calls. The rule behind the calls is not given here.

How the values were obtained:
[1] = molecular target: T1, C-type lectin domain family 4 member E (Homo sapiens) (UniProt Q9ULY5); experiment: Induction of human Mincle expressed in NFAT-GFP reporter cells assessed as induction of mincle-mediated NFAT signaling activity by measuring stimulation of GFP reporter activity at 0.001 to 0.1 nmol/well incubated for 18 hrs by flow cytometry; type: cell-based; conditions: filed as agonist, dose 0.001-0.1 nmol
T1 sequence (whole entry): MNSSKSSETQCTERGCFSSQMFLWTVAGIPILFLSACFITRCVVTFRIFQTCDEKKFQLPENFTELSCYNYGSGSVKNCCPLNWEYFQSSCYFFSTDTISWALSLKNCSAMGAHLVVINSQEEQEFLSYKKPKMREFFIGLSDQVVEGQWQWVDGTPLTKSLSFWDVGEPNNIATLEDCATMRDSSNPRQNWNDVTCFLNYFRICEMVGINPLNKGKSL

[2] = molecular target: T2, C-type lectin domain family 4 member E (Mus musculus) (UniProt Q9R0Q8); experiment: Induction of mouse Mincle expressed in NFAT-GFP reporter cells assessed as induction of mincle-mediated NFAT signaling activity by measuring stimulation of GFP reporter activity at 0.001 to 0.1 nmol/well incubated for 18 hrs by flow cytometry; type: cell-based; conditions: filed as agonist, dose 0.001-0.1 nmol
T2 sequence (whole entry): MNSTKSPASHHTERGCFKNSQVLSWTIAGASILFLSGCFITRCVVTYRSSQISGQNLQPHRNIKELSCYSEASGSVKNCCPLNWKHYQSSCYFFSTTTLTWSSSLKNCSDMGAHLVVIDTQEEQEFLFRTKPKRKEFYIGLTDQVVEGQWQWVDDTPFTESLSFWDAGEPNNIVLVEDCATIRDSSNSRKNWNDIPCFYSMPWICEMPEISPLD

[3] = molecular target: T1, C-type lectin domain family 4 member E (Homo sapiens); experiment: Induction of human Mincle expressed in NFAT-GFP reporter cells assessed as induction of mincle-mediated NFAT signaling activity by measuring stimulation of GFP reporter activity at 0.1 nmol/well incubated for 18 hrs by flow cytometry; type: cell-based; conditions: filed as agonist
[4] = molecular target: T2, C-type lectin domain family 4 member E (Mus musculus); experiment: Induction of mouse Mincle expressed in NFAT-GFP reporter cells assessed as induction of mincle-mediated NFAT signaling activity by measuring stimulation of GFP reporter activity at 0.1 nmol/well incubated for 18 hrs by flow cytometry; type: cell-based; conditions: filed as agonist
[5] = Solubility of the compound in 8 mM DMSO; type: physicochemical; conditions: 8000 µM
[6] = Solubility of the compound in 1 mM DMSO; type: physicochemical

| SMILES | Activity [1] | Activity [2] | Activity [3] | Activity [4] | solubility [5] | solubility [6] |
| --- | --- | --- | --- | --- | --- | --- |
| CCCCCCCCCCCCCCCCCCCCCCCC(C(=O)OC[C@@H]1O[C@@H](O[C@H]2O[C@H](COC(=O)C(CCCCCCCCCCCCCCCCCCCCCCC)C(O)CCCCCCCCCCCCCCCCCC3CC3CCCCCCCCCCCCCCC3CC3CCCCCCCCCCCCCCCCCC)[C@@H](O)[C@H](O)[C@H]2O)[C@@H](O)[C@H](O)[C@H]1O)C(O)CCCCCCCCCCCCCCCCCC1CC1CCCCCCCCCCCCCCC1CC1CCCCCCCCCCCCCCCCCC (some centres undefined) | – | – | Active | Active | – | – |
| CCCCCCC(=O)CCCCCCCCCCC(=O)OC[C@@H]1O[C@@H](O[C@H]2O[C@H](COC(=O)CCCCCCCCCCC(=O)CCCCCC)[C@@H](O)[C@H](O)[C@H]2O)[C@@H](O)[C@H](O)[C@H]1O | Active | Active | – | – | – | – |
| CCCCCCCCCCCCC(=O)CCCCCCCCC(=O)OC[C@@H]1O[C@@H](O[C@H]2O[C@H](COC(=O)CCCCCCCCC(=O)CCCCCCCCCCCC)[C@@H](O)[C@H](O)[C@H]2O)[C@@H](O)[C@H](O)[C@H]1O | Active | Active | – | – | – | – |
| CCCCCCC(N)CCCCCCCCCCC(=O)OC[C@@H]1O[C@@H](O[C@H]2O[C@H](COC(=O)CCCCCCCCCCC(N)CCCCCC)[C@@H](O)[C@H](O)[C@H]2O)[C@@H](O)[C@H](O)[C@H]1O (some centres undefined) | Active | Active | – | – | – | – |
| CCCCCCCCCCCCCCCCCC(=O)OC[C@@H]1O[C@@H](O[C@H]2O[C@H](COC(=O)CCCCCCCCCCCCCCCCC)[C@@H](O)[C@H](O)[C@H]2O)[C@@H](O)[C@H](O)[C@H]1O | – | – | Active | Active | – | – |
| CCCCCCCCC(=O)CCCCCCCCC(=O)OC[C@@H]1O[C@@H](O[C@H]2O[C@H](COC(=O)CCCCCCCCC(=O)CCCCCCCC)[C@@H](O)[C@H](O)[C@H]2O)[C@@H](O)[C@H](O)[C@H]1O | Active | Active | – | – | – | – |
| CCCCCCCCCCCCC(N)CCCCCCCCC(=O)OC[C@@H]1O[C@@H](O[C@H]2O[C@H](COC(=O)CCCCCCCCC(N)CCCCCCCCCCCC)[C@@H](O)[C@H](O)[C@H]2O)[C@@H](O)[C@H](O)[C@H]1O (some centres undefined) | Active | Active | – | – | – | – |

Second part, the molecule after the results:

| Activity [1] | Activity [2] | Activity [3] | Activity [4] | solubility [5] | solubility [6] | SMILES |
| --- | --- | --- | --- | --- | --- | --- |
| Active | Active | – | – | – | – | CCCCCCC(O)CCCCCCCCCCC(=O)OC[C@@H]1O[C@@H](O[C@H]2O[C@H](COC(=O)CCCCCCCCCCC(O)CCCCCC)[C@@H](O)[C@H](O)[C@H]2O)[C@@H](O)[C@H](O)[C@H]1O (some centres undefined) |
| Active | Active | – | – | – | – | CCCCCCCCCCC(O)CCCCCCC(=O)OC[C@@H]1O[C@@H](O[C@H]2O[C@H](COC(=O)CCCCCCC(O)CCCCCCCCCC)[C@@H](O)[C@H](O)[C@H]2O)[C@@H](O)[C@H](O)[C@H]1O (some centres undefined) |
| – | – | Active | Active | Soluble | – | CCCCCCCCC(O)CCCCCCCCC(=O)OC[C@@H]1O[C@@H](O[C@H]2O[C@H](COC(=O)CCCCCCCCC(O)CCCCCCCC)[C@@H](O)[C@H](O)[C@H]2O)[C@@H](O)[C@H](O)[C@H]1O (some centres undefined) |
| Active | Active | – | – | – | – | CCCCCCCC(O)CCCCCCCCCC(=O)OC[C@@H]1O[C@@H](O[C@H]2O[C@H](COC(=O)CCCCCCCCCC(O)CCCCCCC)[C@@H](O)[C@H](O)[C@H]2O)[C@@H](O)[C@H](O)[C@H]1O (some centres undefined) |
| Active | Active | – | – | – | Soluble | CCCCCCCCCCCCC(O)CCCCCCCCC(=O)OC[C@@H]1O[C@@H](O[C@H]2O[C@H](COC(=O)CCCCCCCCC(O)CCCCCCCCCCCC)[C@@H](O)[C@H](O)[C@H]2O)[C@@H](O)[C@H](O)[C@H]1O (some centres undefined) |
| Active | Active | – | – | – | Soluble | CCCCCCCCC(N)CCCCCCCCC(=O)OC[C@@H]1O[C@@H](O[C@H]2O[C@H](COC(=O)CCCCCCCCC(N)CCCCCCCC)[C@@H](O)[C@H](O)[C@H]2O)[C@@H](O)[C@H](O)[C@H]1O (some centres undefined) |
